# Test results reported in patent US4132778A, “Antibiotic A-32887” (Eli Lilly and Company, priority 1977, dated 1979).
# Experiments:
# [1] = Ion binding / ion transport (ionophore)
# Text: A-32887 can be used when the selective removal of particular cations is desired. Examples of such uses include the removal and recovery of silver ions from solutions in photography, the removal of toxic cations from industrial waste streams before such streams are discharged to the environment, and desalinization of sea water. A-32887 can be used as one component of an ion-specific electrode (O. Kedem, et al., U.S. Pat. No. 3,753,887, Aug. 21, 1973, Alkali metal specific measuring electrode). […] A-32887 can be used, therefore, as a component in a membrane used for the selective transport of cations against a concentration gradient. One potential application of this property is in recovery of heavy and precious metals on a commercial basis [see E. L. Cussler, D. F. Evans, and Sister M. A. Matesick, Science 172, 377 (1971)].
# Bacillus subtilis [2] = assay: Conventional disc-diffusion method, minimal media, Table VIII; assay type: cell-based; details: each as Na-K salts
# [3] = test system: type B influenza virus (Maryland, dog kidney); assay: In vitro plaque suppression test; assay type: cell-based
# Staphylococcus aureus = assay: Conventional disc-diffusion method, Table VIII; assay type: cell-based; details: each as Na-K salts
# Description: (§1) The antimicrobial activity of two typical A-32887 acyl ester derivatives is compared with that of A-32887 (each as Na-K salts) in Table VIII. Activity against illustrative bacteria is measured by the conventional disc-diffusion method. In addition, the results of a conventional paper-disc agar-diffusion assay system (Plate Assay) against Bacillus subtilis ATCC 6633 are reported. […] The samples were assayed at 1 mg/ml.
# Micrococcus lutea = assay: Conventional disc-diffusion method, Table VIII; assay type: cell-based; details: each as Na-K salts
# Description: as §1
# Bacillus subtilis [4] = assay: Conventional disc-diffusion method, Table VIII; assay type: cell-based; details: each as Na-K salts
# Description: as §1
# [5] = test system: Transmissible Gastroenteritis virus; assay: In vitro plaque suppression test
# [6] = test system: Infectious Canine Hepatitis virus; assay: In vitro plaque suppression test
smiles,measurement,setting,value
CO[C@H]1CC[C@H](OC2[C@@H](C)[C@@](C)(O)O[C@H]([C@H]3CC[C@H]([C@@H]4CC[C@H]([C@@]5(C)O[C@]6(O[C@H](C[C@@H]7O[C@](O)([C@@H](O)C(=O)O)[C@@H](C)[C@H](OC)[C@@]7(C)OC)C[C@@H](OC)[C@H]6C)[C@H](C)[C@H]5OC)O4)O3)[C@H]2C)O[C@@H]1C.[K+].[Na+] (stereo partly drawn) [A-32887],cation permeability of natural and artificial membranes,[1],alters the cation permeability of both natural and artificial membranes
same,ion-binding and ion-transport properties,[1],exhibits ion-binding and ion-transport properties
same,"activity by disc-diffusion, Bacillus subtilis",Bacillus subtilis [2],30
same,antiviral activity,[3],active
same,"activity by disc-diffusion, Staphylococcus aureus",Staphylococcus aureus,16
same,"activity by disc-diffusion, Micrococcus lutea",Micrococcus lutea,16
same,"activity by disc-diffusion, Bacillus subtilis",Bacillus subtilis [4],18
same,antiviral activity,[5],active
same,antiviral activity,[6],active
